{"source": "PubChem BioAssay AID2060897", "about": "(Molecular Pharmacology Branch, DTP, NCI, 2025);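 note: spheroids exposed to agents for one week before readout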;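 for viability, T/C: percent viability relative to DMSO vehicle control wells as 100%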", "system": "966289-007-R4-J1-PDC complex spheroid viability", "assay": "Anticancer human tumor 966289-007-R4-J1-PDC patient-derived pancreatic adenocarcinoma cell line growth inhibition [RAS]", "conditions": "for viability, T/C: stronger effect = lower value", "how_it_was_run": "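Tumour cells grown as complex spheroids with HUVEC endothelial cells and mesenchymal stem cells, treated with RAS pathway inhibitor combinations. Each agent spans half-log steps from near clinical Cmax, or 10 microM where Cmax is unknown.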", "key": {"[1]": {"conditions": "curve of first compound, second compound 0.0316 µM"}, "[2]": {"conditions": "curve of first compound, second compound 0.1 µM"}, "[3]": {"conditions": "curve of first compound, second compound 0.316 µM"}, "[4]": {"conditions": "curve of first compound, second compound 1 µM"}, "[5]": {"conditions": "curve of first compound, second compound 3.16 µM"}, "[6]": {"conditions": "curve of first compound, second compound 10 µM"}, "[7]": {"conditions": "second compound 0.0316 µM, first compound 0.0316 µM"}, "[8]": {"conditions": "second compound 0.0316 µM, first compound 0.1 µM"}, "[9]": {"conditions": "second compound 0.0316 µM, first compound 0.316 µM"}, "[10]": {"conditions": "second compound 0.0316 µM, first compound 1 µM"}, "[11]": {"conditions": "second compound 0.1 µM, first compound 0.0316 µM"}, "[12]": {"conditions": "second compound 0.1 µM, first compound 0.1 µM"}, "[13]": {"conditions": "second compound 0.1 µM, first compound 0.316 µM"}, "[14]": {"conditions": "second compound 0.1 µM, first compound 1 µM"}, "[15]": {"conditions": "second compound 0.316 µM, first compound 0.0316 µM"}, "[16]": {"conditions": "second compound 0.316 µM, first compound 0.1 µM"}, "[17]": {"conditions": "second compound 0.316 µM, first compound 0.316 µM"}, "[18]": {"conditions": "second compound 0.316 µM, first compound 1 µM"}, "[19]": {"conditions": "second compound 1 µM, first compound 0.0316 µM"}, "[20]": {"conditions": "second compound 1 µM, first compound 0.1 µM"}, "[21]": {"conditions": "second compound 1 µM, first compound 0.316 µM"}, "[22]": {"conditions": "second compound 1 µM, first compound 1 µM"}, "[23]": {"conditions": "second compound 3.16 µM, first compound 0.0316 µM"}, "[24]": {"conditions": "second compound 3.16 µM, first compound 0.1 µM"}, "[25]": {"conditions": "second compound 3.16 µM, first compound 0.316 µM"}, "[26]": {"conditions": "second compound 3.16 µM, first compound 1 µM"}, "[27]": {"conditions": "second compound 10 µM, first compound 0.0316 µM"}, "[28]": {"conditions": "second compound 10 µM, first compound 0.1 µM"}, "[29]": {"conditions": "second compound 10 µM, first compound 0.316 µM"}, "[30]": {"conditions": "second compound 10 µM, first compound 1 µM"}}, "data": [{"smiles": "Nc1ccn(C2OC(CO)C(O)C2(F)F)c(=O)n1", "note": "(stereo not given) + C#Cc1c(F)ccc2cc(O)cc(-c3ncc4c(N5CC6CCC(C5)N6)nc(OCC56CCCN5CC(F)C6)nc4c3F)c12", "values": [{"measurement": "IC50", "setting": "[1]", "result": 7.64, "unit": "nM"}, {"measurement": "IC50", "setting": "[2]", "result": 11.9, "unit": "nM"}, {"measurement": "IC50", "setting": "[3]", "result": 8.38, "unit": "nM"}, {"measurement": "IC50", "setting": "[4]", "result": 8.9, "unit": "nM"}, {"measurement": "IC50", "setting": "[5]", "result": 8.38, "unit": "nM"}, {"measurement": "IC50", "setting": "[6]", "result": 7.88, "unit": "nM"}, {"measurement": "viability, T/C", "setting": "second compound 0.0316 µM, first compound 0.00316 µM", "result": 108, "unit": "%"}, {"measurement": "viability, T/C", "setting": "second compound 0.0316 µM, first compound 0.01 µM", "result": 32.5, "unit": "%"}, {"measurement": "viability, T/C", "setting": "[7]", "result": 2.19, "unit": "%"}, {"measurement": "viability, T/C", "setting": "[8]", "result": 1.41, "unit": "%"}, {"measurement": "viability, T/C", "setting": "[9]", "result": 1.38, "unit": "%"}, {"measurement": "viability, T/C", "setting": "[10]", "result": 1.56, "unit": "%"}, {"measurement": "viability, T/C", "setting": "second compound 0.1 µM, first compound 0.00316 µM", "result": 99.4, "unit": "%"}, {"measurement": "viability, T/C", "setting": "second compound 0.1 µM, first compound 0.01 µM", "result": 58.5, "unit": "%"}, {"measurement": "viability, T/C", "setting": "[11]", "result": 1.48, "unit": "%"}, {"measurement": "viability, T/C", "setting": "[12]", "result": 1.34, "unit": "%"}, {"measurement": "viability, T/C", "setting": "[13]", "result": 1.6, "unit": "%"}, {"measurement": "viability, T/C", "setting": "[14]", "result": 1.65, "unit": "%"}, {"measurement": "viability, T/C", "setting": "second compound 0.316 µM, first compound 0.00316 µM", "result": 91.6, "unit": "%"}, {"measurement": "viability, T/C", "setting": "second compound 0.316 µM, first compound 0.01 µM", "result": 42.4, "unit": "%"}, {"measurement": "viability, T/C", "setting": "[15]", "result": 1.95, "unit": "%"}, {"measurement": "viability, T/C", "setting": "[16]", "result": 1.65, "unit": "%"}, {"measurement": "viability, T/C", "setting": "[17]", "result": 1.22, "unit": "%"}, {"measurement": "viability, T/C", "setting": "[18]", "result": 1.73, "unit": "%"}, {"measurement": "viability, T/C", "setting": "second compound 1 µM, first compound 0.00316 µM", "result": 101, "unit": "%"}, {"measurement": "viability, T/C", "setting": "second compound 1 µM, first compound 0.01 µM", "result": 44.2, "unit": "%"}, {"measurement": "viability, T/C", "setting": "[19]", "result": 2.02, "unit": "%"}, {"measurement": "viability, T/C", "setting": "[20]", "result": 1.61, "unit": "%"}, {"measurement": "viability, T/C", "setting": "[21]", "result": 1.68, "unit": "%"}, {"measurement": "viability, T/C", "setting": "[22]", "result": 1.67, "unit": "%"}, {"measurement": "viability, T/C", "setting": "second compound 3.16 µM, first compound 0.00316 µM", "result": 97.4, "unit": "%"}, {"measurement": "viability, T/C", "setting": "second compound 3.16 µM, first compound 0.01 µM", "result": 41.4, "unit": "%"}, {"measurement": "viability, T/C", "setting": "[23]", "result": 2.43, "unit": "%"}, {"measurement": "viability, T/C", "setting": "[24]", "result": 2.49, "unit": "%"}, {"measurement": "viability, T/C", "setting": "[25]", "result": 2.42, "unit": "%"}, {"measurement": "viability, T/C", "setting": "[26]", "result": 2.25, "unit": "%"}, {"measurement": "viability, T/C", "setting": "second compound 10 µM, first compound 0.00316 µM", "result": 99.1, "unit": "%"}, {"measurement": "viability, T/C", "setting": "second compound 10 µM, first compound 0.01 µM", "result": 37.1, "unit": "%"}, {"measurement": "viability, T/C", "setting": "[27]", "result": 1.37, "unit": "%"}, {"measurement": "viability, T/C", "setting": "[28]", "result": 1.51, "unit": "%"}, {"measurement": "viability, T/C", "setting": "[29]", "result": 1.83, "unit": "%"}, {"measurement": "viability, T/C", "setting": "[30]", "result": 1.37, "unit": "%"}]}, {"smiles": "CC(C)NCC(C(=O)N1CCN(c2ncnc3c2C(C)CC3O)CC1)c1ccc(Cl)cc1", "note": "(stereo not given)", "values": [{"measurement": "viability, T/C", "setting": "compound 0.0316 µM", "result": "105% [middle of 4 runs]"}, {"measurement": "viability, T/C", "setting": "compound 0.316 µM", "result": "115% [middle of 4 runs]"}, {"measurement": "viability, T/C", "setting": "compound 1 µM", "result": "105% [middle of 4 runs]"}, {"measurement": "viability, T/C", "setting": "compound 3.16 µM", "result": "64% [middle of 4 runs]"}, {"measurement": "viability, T/C", "setting": "compound 10 µM", "result": "34.2% [middle of 4 runs]"}, {"measurement": "IC50", "setting": "curve of compound", "result": "5.43 µM [middle of 4 runs]"}]}, {"smiles": "NC1c2ccccc2OC12CCN(c1cnc3c(N4CCCc5ncccc54)n[nH]c3n1)CC2", "note": "(stereo not given) + C#Cc1c(F)ccc2cc(O)cc(-c3ncc4c(N5CC6CCC(C5)N6)nc(OCC56CCCN5CC(F)C6)nc4c3F)c12", "values": [{"measurement": "IC50", "setting": "[1]", "result": "> 10000", "unit": "nM"}, {"measurement": "IC50", "setting": "[2]", "result": "> 10000", "unit": "nM"}, {"measurement": "IC50", "setting": "[3]", "result": "> 10000", "unit": "nM"}, {"measurement": "IC50", "setting": "[4]", "result": "> 10000", "unit": "nM"}, {"measurement": "IC50", "setting": "[5]", "result": "> 10000", "unit": "nM"}, {"measurement": "IC50", "setting": "[6]", "result": "> 10000", "unit": "nM"}, {"measurement": "viability, T/C", "setting": "[7]", "result": 118, "unit": "%"}, {"measurement": "viability, T/C", "setting": "[8]", "result": 88.8, "unit": "%"}, {"measurement": "viability, T/C", "setting": "[9]", "result": 98.4, "unit": "%"}, {"measurement": "viability, T/C", "setting": "[10]", "result": 97.3, "unit": "%"}, {"measurement": "viability, T/C", "setting": "second compound 0.0316 µM, first compound 3.16 µM", "result": 108, "unit": "%"}, {"measurement": "viability, T/C", "setting": "second compound 0.0316 µM, first compound 10 µM", "result": 92.7, "unit": "%"}, {"measurement": "viability, T/C", "setting": "[11]", "result": 106, "unit": "%"}, {"measurement": "viability, T/C", "setting": "[12]", "result": 98.1, "unit": "%"}, {"measurement": "viability, T/C", "setting": "[13]", "result": 95.5, "unit": "%"}, {"measurement": "viability, T/C", "setting": "[14]", "result": 108, "unit": "%"}, {"measurement": "viability, T/C", "setting": "second compound 0.1 µM, first compound 3.16 µM", "result": 99.7, "unit": "%"}, {"measurement": "viability, T/C", "setting": "second compound 0.1 µM, first compound 10 µM", "result": 109, "unit": "%"}, {"measurement": "viability, T/C", "setting": "[15]", "result": 100, "unit": "%"}, {"measurement": "viability, T/C", "setting": "[16]", "result": 105, "unit": "%"}, {"measurement": "viability, T/C", "setting": "[17]", "result": 95.5, "unit": "%"}, {"measurement": "viability, T/C", "setting": "[18]", "result": 113, "unit": "%"}, {"measurement": "viability, T/C", "setting": "second compound 0.316 µM, first compound 3.16 µM", "result": 108, "unit": "%"}, {"measurement": "viability, T/C", "setting": "second compound 0.316 µM, first compound 10 µM", "result": 113, "unit": "%"}, {"measurement": "viability, T/C", "setting": "[19]", "result": 100, "unit": "%"}, {"measurement": "viability, T/C", "setting": "[20]", "result": 103, "unit": "%"}, {"measurement": "viability, T/C", "setting": "[21]", "result": 118, "unit": "%"}, {"measurement": "viability, T/C", "setting": "[22]", "result": 109, "unit": "%"}, {"measurement": "viability, T/C", "setting": "second compound 1 µM, first compound 3.16 µM", "result": 95.8, "unit": "%"}, {"measurement": "viability, T/C", "setting": "second compound 1 µM, first compound 10 µM", "result": 118, "unit": "%"}, {"measurement": "viability, T/C", "setting": "[23]", "result": 101, "unit": "%"}, {"measurement": "viability, T/C", "setting": "[24]", "result": 92.2, "unit": "%"}, {"measurement": "viability, T/C", "setting": "[25]", "result": 109, "unit": "%"}, {"measurement": "viability, T/C", "setting": "[26]", "result": 101, "unit": "%"}, {"measurement": "viability, T/C", "setting": "second compound 3.16 µM, first compound 3.16 µM", "result": 91.1, "unit": "%"}, {"measurement": "viability, T/C", "setting": "second compound 3.16 µM, first compound 10 µM", "result": 99.7, "unit": "%"}, {"measurement": "viability, T/C", "setting": "[27]", "result": 105, "unit": "%"}, {"measurement": "viability, T/C", "setting": "[28]", "result": 90.1, "unit": "%"}, {"measurement": "viability, T/C", "setting": "[29]", "result": 120, "unit": "%"}, {"measurement": "viability, T/C", "setting": "[30]", "result": 98.8, "unit": "%"}, {"measurement": "viability, T/C", "setting": "second compound 10 µM, first compound 3.16 µM", "result": 108, "unit": "%"}, {"measurement": "viability, T/C", "setting": "second compound 10 µM, first compound 10 µM", "result": 115, "unit": "%"}]}]}
